Results reported in BindingDB's records for doi:10.1021/acs.jmedchem.8b01436 (University of New South Wales, 2019).
Peptide text beside a SMILES is read from it.

Assay: Inhibition of (2S,8S,11S,14S)-2-(4-aminobutyl)-14-(3-guanidinopropyl)-8-(4-hydroxybenzyl)-11-(hydroxymethyl)-4,7,10,13,16,32-hexaoxo-36-((3aS,4S,6aR)-2-oxohexahydro-1H-thieno[3,4-d]imidazol-4-yl)-19,22,25,28-tetraoxa-3,6,9,12,15,31-hexaazahexatriacontan-1-oic acid binding to human Hsp72 SBD expressed in Escherichia coli BL21 (DE3) by Western

Row | IC50 | Compound
1 | 87.3 µM | N=C(N)NCCC[C@H](NC(=O)[C@H](CO)NC(=O)[C@H](Cc1ccc(O)cc1)NC(=O)CNC(=O)[C@@H](N)CCCCN)C(=O)O (H-KGYSR-OH)
2 | 248 µM | N=C(N)NCCC[C@H](NC(=O)[C@H](CO)NC(=O)[C@H](Cc1ccc(O)cc1)NC(=O)CNC(=O)[C@@H](N)CCCCN)C(=O)N[C@@H](CCCCN)C(=O)O (H-KGYSRK-OH)
3 | 70 µM | C[C@H](NC(=O)[C@H](CCCCN)NC(=O)[C@H](CCCNC(=N)N)NC(=O)[C@H](CO)NC(=O)[C@H](Cc1ccc(O)cc1)NC(=O)CNC(=O)[C@@H](N)CCCCN)C(=O)O (H-KGYSRKA-OH)
4 | 6.43 µM | C[C@H](NC(=O)[C@H](C)NC(=O)[C@H](CCCCN)NC(=O)[C@H](CCCNC(=N)N)NC(=O)[C@H](CO)NC(=O)[C@H](Cc1ccc(O)cc1)NC(=O)CNC(=O)[C@@H](N)CCCCN)C(=O)O (H-KGYSRKAA-OH)
